Patent US8754257B2, “Pharmaceutical-grade ferric organic compounds, uses thereof and methods of making same” (GloboAsia, LLC, priority 2003, dated 2014)
Entries after “also recorded” stand apart in the source; their conditions may differ.

How the values were obtained:
[1] = Intrinsic dissolution rate of ferric citrate; assay type: physicochemical; details: for Intrinsic Dissolution Rates: 37° C., solutions of pH 8
Source text: The intrinsic dissolution rate is defined as the dissolution rate of pure substances under the condition of constant surface area. […] The measured intrinsic dissolution rate is dependent on these solid-state properties and is typically determined by exposing a constant surface area of a material to an appropriate dissolution medium while maintaining constant temperature, stirring rate, and pH.

[2] = BET active surface area measurement; assay type: physicochemical; details: for BET Active Surface Area: Table 2, one value per pair of samples -1/-2
Protocol: The analysis of active surface area is based on BET theory which describes the phenomenon of mass and energy interaction and phase changes during as adsorption onto solid surfaces and in pore spaces. In BET active surface area measurement, the volume of a monolayer of gas is determined which allows the surface area of the sample to be determined using the area occupied by a single layer of adsorbed gas molecule.

[3] = tested on: patients with End Stage Renal Disease (ESRD); details: cited from earlier work
[4] = tested on: patients with kidney disease; details: patients with kidney disease receiving doses of ferric citrate; cited from earlier work
[5] = tested on: patients; assay: Clinical study of pharmaceutical-grade ferric citrate in patients in vivo; design: species or system human
Protocol: Ferric citrate is supplied in 500 mg capsules, whereas the placebo will be provided in identical-looking capsules (indistinguishable from those containing the active drug); the placebo capsules will contain sorbitol and colorant to match the powder color of the active capsules. The placebo capsule shells will be identical to the active capsule shells.
An non-limiting example of a dosing regimen is provided below. This is not meant to limit the invention as to how an effective amount of ferric citrate is selected, or the form in which it is provided or the frequency of administering the composition per day. The following merely illustrates how ferric citrate and placebo may be administered; e.g., as 500 mg capsules of identical appearance. All patients may receive (in a blinded fashion) 4 capsules with each of three meals, on a daily basis, for 28 days. Patients will be instructed to take the study medication within 10 minutes of finishing their meals (breakfast, lunch, and dinner).
• 4 placebo capsules, with breakfast. • 4 placebo capsules, with lunch. • 4 placebo capsules with dinner Ferric Citrate 2 g Per Day Arm of the Study • 1 ferric citrate capsule and 3 placebo capsules with breakfast • 1 ferric citrate capsule and 3 placebo capsules with lunch • 2 ferric citrate capsules and 2 placebo capsules with dinner Ferric Citrate 4 g Per Day Arm • 2 ferric citrate capsules and 2 placebo capsules with breakfast • 3 ferric citrate capsule and 1 placebo capsule with lunch • 3 ferric citrate capsules and 1 placebo capsule with dinner Ferric Citrate 6 g Per Day Arm • 4 ferric citrate capsules with breakfast • 4 ferric citrate capsules with lunch • 4 ferric citrate capsules with dinner B. Clinical Schedule and Assessments Duration of Study Treatment
Each patient's participation in the trial lasts for up to 8 weeks: the screening period (approximately 1-2 weeks), a 1-2 week washout, and 4 weeks of treatment with study medication.
The following procedures will be performed at the first screening visit: • 1. Medical history, including concomitant medications. • 2. Demographic data • 3. Physical examination, including height, weight, and vital signs. • 4. Dietary interview, using 24 hour recall method, to assess dietary intake of calcium and phosphorous, three times during screening period, to include one dialysis day, one non-dialysis day, and one weekend day. Note: Dietary interview may be also performed, in part or in whole, during the washout period. • 5. […]

## ferric citrate [STM-134]
[1]
  Intrinsic Dissolution Rates: 1.88 mg/cm2/min

## ferric citrate [RFS-12-1, reference compound]
[2]
  BET Active Surface Area: 0.61

## ferric citrate [STM-182-1]
[2]
  BET Active Surface Area: 19.85

## ferric citrate
[3]; 3 g daily
  GI symptoms: mild, hut tolerable GI symptoms
  change in serum P04: significant decrease in serum P04
[3]
  efficacy in reducing serum P04 compared with calcium carbonate (3 g daily): not as effective as calcium carbonate
[4]
  calcium deposits on the eye: reversal of calcium deposits on the eye

## ferric citrate [PAN031203E]
[1]
  Intrinsic Dissolution Rates: 3.13 mg/cm2/min

## ferric citrate [PAN031203B]
[1]
  Intrinsic Dissolution Rates: 4.00 mg/cm2/min

## ferric citrate [STM-134-1]
[2]
  BET Active Surface Area: 16.17

## ferric citrate [PAN031203C]
[1]
  Intrinsic Dissolution Rates: 2.68 mg/cm2/min

## ferric citrate [PAN031203A]
[1]
  Intrinsic Dissolution Rates: 3.82 mg/cm2/min

## ferric citrate [ferric citrate of the present invention]
[2]
  BET active surface area relative to commercially available ferric citrate: at least 16 times
[5]; FIG. 12
  adverse side effects compared with placebo: not statistically different from chose associated with the placebo
[5]; oral capsules, FIG. 12, listed as pharmaceutical grade ferric citrate
  adverse side effects / safety profile compared with chemical grade ferric citrate: less adverse clinical effects; also recorded: significantly more desirable safety profile
[5]; oral capsules, FIG. 12, listed as pharmaceutical-grade ferric citrate
  adverse side effects / safety profile compared with chemical grade ferric citrate: less adverse side effects than chemical grade ferric citrate
[5]; oral capsules, FIG. 13, listed as pharmaceutical-grade ferric citrate
  efficacy compared with chemical grade ferric citrate: approximately equal so that of chemical grade ferric citrate
[1]; experiment simulating the alkaline condition in the small intestine
  dissolution rate compared with commercially available ferric citrate: better dissolution rate than the commercially available ferric citrate
[1]; pH 8.0
  intrinsic dissolution rate relative to commercially available ferric citrate: 3.08 times

## ferric citrate [PAN031203D]
[1]
  Intrinsic Dissolution Rates: 2.95 mg/cm2/min
